Reference: patent US11008314B2, “Compounds and methods for modulating interleukin-2-inducible t-cell kinase” (CORVUS PHARMACEUTICALS, INC., priority 2016, dated 2021)

Tests used:
[1] = target: TXK (Homo sapiens (Human), UniProt P42681); test: IC50 against TXK; assay type: biochemical; details: for TXK/ITK: ratio of TXK IC50 to ITK IC50
[2] = test system: Jurkat IL2; test: Jurkat IL2 IC50; assay type: cell-based; details: Homo sapiens, Jurkat cells
[3] = target: JAK3 (Homo sapiens (Human), UniProt P52333); test: IC50 against JAK3; assay type: biochemical
Chain of JAK3 (P52333 whole entry, species assumed): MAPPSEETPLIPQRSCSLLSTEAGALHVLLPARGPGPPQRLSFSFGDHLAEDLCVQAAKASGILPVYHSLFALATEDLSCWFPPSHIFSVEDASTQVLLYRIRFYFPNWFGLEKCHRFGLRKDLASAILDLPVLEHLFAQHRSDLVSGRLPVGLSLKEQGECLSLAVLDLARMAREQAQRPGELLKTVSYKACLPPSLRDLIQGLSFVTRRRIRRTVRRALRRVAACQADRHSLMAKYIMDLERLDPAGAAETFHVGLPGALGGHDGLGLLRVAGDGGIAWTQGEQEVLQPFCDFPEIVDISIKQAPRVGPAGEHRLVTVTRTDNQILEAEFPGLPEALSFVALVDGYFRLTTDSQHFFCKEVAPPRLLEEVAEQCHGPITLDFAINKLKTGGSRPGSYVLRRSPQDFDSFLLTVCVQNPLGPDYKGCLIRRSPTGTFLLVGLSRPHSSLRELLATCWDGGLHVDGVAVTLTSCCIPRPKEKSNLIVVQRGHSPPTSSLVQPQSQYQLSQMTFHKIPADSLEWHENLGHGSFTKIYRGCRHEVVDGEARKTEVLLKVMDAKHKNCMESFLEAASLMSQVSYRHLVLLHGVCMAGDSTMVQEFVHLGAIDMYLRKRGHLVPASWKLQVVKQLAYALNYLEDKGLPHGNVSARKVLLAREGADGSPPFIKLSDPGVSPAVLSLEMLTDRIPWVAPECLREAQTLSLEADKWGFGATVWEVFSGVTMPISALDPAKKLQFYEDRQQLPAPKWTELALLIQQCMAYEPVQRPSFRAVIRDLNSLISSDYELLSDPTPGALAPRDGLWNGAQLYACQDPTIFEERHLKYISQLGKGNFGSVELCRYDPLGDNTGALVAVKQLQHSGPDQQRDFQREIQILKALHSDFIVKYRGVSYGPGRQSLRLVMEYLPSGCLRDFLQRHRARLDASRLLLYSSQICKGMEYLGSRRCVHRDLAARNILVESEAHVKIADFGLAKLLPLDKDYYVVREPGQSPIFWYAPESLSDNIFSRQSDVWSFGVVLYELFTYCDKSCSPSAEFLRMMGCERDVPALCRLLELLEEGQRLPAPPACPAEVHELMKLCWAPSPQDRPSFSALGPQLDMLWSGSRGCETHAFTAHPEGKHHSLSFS

[4] = target: ITK (Homo sapiens (Human), UniProt Q08881); test: IC50 against ITK; assay type: biochemical
Chain of ITK (Q08881 whole entry): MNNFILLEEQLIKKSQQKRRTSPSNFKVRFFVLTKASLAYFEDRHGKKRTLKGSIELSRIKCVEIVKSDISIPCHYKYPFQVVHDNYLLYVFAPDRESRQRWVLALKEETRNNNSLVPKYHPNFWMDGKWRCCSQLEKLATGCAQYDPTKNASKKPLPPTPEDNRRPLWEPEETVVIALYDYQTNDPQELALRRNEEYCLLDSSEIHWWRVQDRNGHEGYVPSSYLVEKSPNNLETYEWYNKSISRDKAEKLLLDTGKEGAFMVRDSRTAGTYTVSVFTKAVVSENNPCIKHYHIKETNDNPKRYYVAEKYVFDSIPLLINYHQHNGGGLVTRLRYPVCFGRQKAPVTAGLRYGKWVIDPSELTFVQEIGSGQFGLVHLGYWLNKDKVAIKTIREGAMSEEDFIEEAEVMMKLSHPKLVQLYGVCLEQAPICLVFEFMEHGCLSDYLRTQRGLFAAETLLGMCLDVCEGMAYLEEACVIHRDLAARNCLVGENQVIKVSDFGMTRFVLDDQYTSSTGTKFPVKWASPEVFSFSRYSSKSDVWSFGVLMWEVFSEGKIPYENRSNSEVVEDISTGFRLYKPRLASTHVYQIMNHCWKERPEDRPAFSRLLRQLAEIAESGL

[5] = Mouse PO PK; details: in vivo, 10 mg/kg, PO 10 mpk
[6] = Rat PO PK; details: in vivo, 6 mg/kg, PO 6 mpk
[7] = target: BTK (Homo sapiens (Human), UniProt Q06187); test: IC50 against BTK; assay type: biochemical
Chain of BTK (Q06187 whole entry, species assumed): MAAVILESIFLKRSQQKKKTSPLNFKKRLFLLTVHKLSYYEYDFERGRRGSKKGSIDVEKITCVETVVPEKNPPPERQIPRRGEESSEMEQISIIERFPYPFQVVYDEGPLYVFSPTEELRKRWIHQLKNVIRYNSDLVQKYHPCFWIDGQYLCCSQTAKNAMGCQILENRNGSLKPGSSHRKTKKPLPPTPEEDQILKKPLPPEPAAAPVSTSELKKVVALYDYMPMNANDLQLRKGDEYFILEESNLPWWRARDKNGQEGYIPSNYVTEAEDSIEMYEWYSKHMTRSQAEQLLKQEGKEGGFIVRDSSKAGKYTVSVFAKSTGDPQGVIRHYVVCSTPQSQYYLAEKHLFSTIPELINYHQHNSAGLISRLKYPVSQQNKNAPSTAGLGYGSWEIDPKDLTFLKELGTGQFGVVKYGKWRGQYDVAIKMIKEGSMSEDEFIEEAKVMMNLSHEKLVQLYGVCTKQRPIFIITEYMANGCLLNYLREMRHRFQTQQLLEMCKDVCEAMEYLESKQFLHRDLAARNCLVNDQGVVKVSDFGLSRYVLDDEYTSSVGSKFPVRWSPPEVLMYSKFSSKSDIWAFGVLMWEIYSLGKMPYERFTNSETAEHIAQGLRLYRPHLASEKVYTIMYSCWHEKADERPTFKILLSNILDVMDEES

Chain of TXK (P42681 whole entry, species assumed): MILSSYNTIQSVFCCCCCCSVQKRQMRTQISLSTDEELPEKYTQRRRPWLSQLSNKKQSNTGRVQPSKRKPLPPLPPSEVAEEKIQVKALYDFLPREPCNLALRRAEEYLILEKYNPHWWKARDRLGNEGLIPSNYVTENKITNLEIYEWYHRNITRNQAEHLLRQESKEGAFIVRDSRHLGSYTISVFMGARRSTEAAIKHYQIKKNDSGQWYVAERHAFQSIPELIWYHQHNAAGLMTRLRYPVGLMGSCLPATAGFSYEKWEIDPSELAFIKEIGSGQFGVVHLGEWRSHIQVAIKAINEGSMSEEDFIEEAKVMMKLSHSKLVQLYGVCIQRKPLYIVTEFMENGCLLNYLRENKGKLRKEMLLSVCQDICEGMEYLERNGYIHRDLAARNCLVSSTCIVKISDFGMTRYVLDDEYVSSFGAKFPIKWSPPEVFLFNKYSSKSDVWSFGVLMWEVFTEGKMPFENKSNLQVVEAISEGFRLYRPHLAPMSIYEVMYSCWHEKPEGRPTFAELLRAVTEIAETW

Compound	IC50 [1] [nM]	TXK/ITK [1]	IC50 [2] [nM]	IC50 [3] [nM]	IC50 [4] [nM]	AUC(0-t) [5] [ng·h/mL]	Cmax [5] [ng/mL]	bioavailability [5] [%]	AUC(0-t) [6] [ng·h/mL]	Cmax [6] [ng/mL]	bioavailability [6] [%]	IC50 [7] [nM]
C=CC(=O)N1CCCN(C(=O)c2cc(Sc3cnc(NC(=O)c4ccc(F)c(CN(C)C)c4)s3)c(C)cc2OC)CC1 [Compound 50]	1000 to 10000	230.63	36	1000 to 10000	< 10				3.4	25.2	3.4	100 to 1000
C=CC(=O)N1[C@@H]2CC[C@H]1CN(C(=O)c1cc(Sc3cnc(NC(=O)c4ccsc4)s3)c(C)cc1OC)C2 [Compound 155, N-(5-((5-((1R, 5S)-8-acryloyl-3,8-diazabicyclo[3.2.1]octane-3-carbonyl)-4-methoxy-2-methylphenyl)thio)thiazol-2-yl)thiophene-3-carboxamide]	< 10	2.73		10 to 100	< 10							< 10
C=CC(=O)N1CCN(C(=O)c2cc(Sc3cnc(NC(=O)c4ccsc4)s3)c(C)cc2OC)C[C@H]1C#N [Compound 156, (S)-N-(5-((5-(4-acryloyl-3-cyanopiperazine-1-carbonyl)-4-methoxy-2-methylphenyl)thio)thiazol-2-yl)thiophene-3-carboxamide]	< 10	3.09		< 10	< 10							< 10

Further lines, results first:

IC50 [1] [nM]	TXK/ITK [1]	IC50 [2] [nM]	IC50 [3] [nM]	IC50 [4] [nM]	AUC(0-t) [5] [ng·h/mL]	Cmax [5] [ng/mL]	bioavailability [5] [%]	AUC(0-t) [6] [ng·h/mL]	Cmax [6] [ng/mL]	bioavailability [6] [%]	IC50 [7] [nM]	Compound
< 10	7.378	10	100 to 1000	< 10	335	613	20.1	10.9	97	10.9	100 to 1000	C=CC(=O)N1CCN(C(=O)c2cc(Sc3cnc(NC(=O)C4CC4)s3)c(C)cc2OC)CC1 [Compound 1]
10 to 100	22.223	53	100 to 1000	< 10	215	292	10.5	18.1	148	18.1	100 to 1000	C=CC(=O)N1CCN(C(=O)c2cc(Sc3cnc(NC(=O)C4CC4)s3)c(C)cc2OC)C[C@H]1C [Compound 21]
1000 to 10000	239.91	100	1000 to 10000	< 10				0.4	15.7	0.4	100 to 1000	C=CC(=O)N1CCCN(C(=O)c2cc(Sc3cnc(NC(=O)c4cccc(CN(C)C)c4)s3)c(C)cc2OC)CC1 [Compound 33]
100 to 1000		31	1000 to 10000		226	368	9.8	12.5	75	12.5	100 to 1000	C=CC(=O)N1CCCN(C(=O)c2cc(Sc3cnc(NC(=O)C4CC4)s3)c(C)cc2OC)C[C@H]1C [Compound 44]
< 10	8.3141	33	10 to 100	< 10	419	527	20				10 to 100	C=CC(=O)N1CCN(C(=O)c2cc(Sc3cnc(NC(=O)c4ccsc4)s3)c(C)cc2OC)CC1 [Compound 90]
